Laboratory results as given in US6335332B1, “Barbituric acid derivatives with antimetastatic and antitumor activity” (Roche Diagnostics GmbH, priority 1997, dated 2002).
pIC50: −log10 of the molar value. Where two headings read alike, the source gives them in different places.

Assays:
[1] = molecular target: T1, MMP-9 (gelentinase 92 kD) (Homo sapiens, UniProt P14780); assay: Inhibition of MMP-9 catalytic domain (same test as MMP8); assay type: biochemical
T1 construct: MMP-9 IC50; other: catalytic domain
T1 sequence (P14780 with tags, fused parts or gaps DEL217-390 limits assumed): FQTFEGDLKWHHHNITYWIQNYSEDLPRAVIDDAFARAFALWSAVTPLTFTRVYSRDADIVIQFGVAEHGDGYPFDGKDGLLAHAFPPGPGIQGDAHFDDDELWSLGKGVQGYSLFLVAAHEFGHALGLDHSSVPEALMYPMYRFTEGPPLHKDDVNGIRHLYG
Experimental: The compounds of the present invention have been tested in a pharmacological “in vitro” test of inhibition of MMP8 (human neutrophil collagenase). Said test provides for the determination via fluorescence of the inhibition of the degradation of a fluorescent substrate (DNP-Pro-Leu-Gly-Leu-Trp-Ala-D-Arg-[…], M1855 Bachem) by means of the catalytic domain of MMP8.
(§1) Reagents: 1) DNP-substrate=DNP-Pro-Leu-Gly-Leu-Trp-Ala-D-Arg-NH2 (M1855 Bachem), M. W. 977,l g/mol, concentration 25 μM in DMSO, 2) measurement buffer=50 mM TRIS/100 mM NaCl/10 mM CaCl2.2H2O, adjusted at pH 7 6 with hydrochloric acid. 3) Enzyme=catalytic domain of MMP8 ([…]), concentration 0.055 mg/ml in TRIS buffer. Substrate and enzyme are maintained at 0° C. with ice bath.
(§2) Total volume=1 ml of solution kept under stirring in a cuvette
(§3) It is measured the fluoresence at 346 nm both of the control solution (without inhibitor) and of the solution containing the inhibitor. The inhibition of the catalytic activity of MMP8 results in the decrease of the DNP-substrate bond's lysis, with related decrease of the fluorescence of the solution.
(§4) The percentage of inhibition is expressed by the following formula:
(§5) % Inhibition=100−(rel. unit/timewith inhibitor/rel. unit/timecontrol×100)
(§6) By repeating the experiment at different concentrations of inhibitor it is possible to determine the IC50 value.
The same test has been performed also on the MMP-9 (gelentinase 92 kD) and the selectivity between the two enzymes has been evaluated. Values of MMP-9/MMP-8 rate well below 1 are expected to give rise to less side toxic effects, since MMP-8 seems more involved in the regulation of vital functions that MMP-9 does.

[2] = molecular target: T2, MMP8 (human neutrophil collagenase) catalytic domain (Homo sapiens, UniProt P22894); assay: Inhibition of MMP8 catalytic domain, fluorescent DNP-substrate degradation; assay type: biochemical
T2 construct: by means of the catalytic domain of MMP8
T2 sequence (P22894 100-262 limits assumed): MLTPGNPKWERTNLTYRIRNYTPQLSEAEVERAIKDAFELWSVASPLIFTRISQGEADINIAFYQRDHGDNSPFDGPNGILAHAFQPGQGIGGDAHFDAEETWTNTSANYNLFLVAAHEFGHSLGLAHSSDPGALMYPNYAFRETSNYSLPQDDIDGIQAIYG
Experimental: Said test provides for the determination via fluorescence of the inhibition of the degradation of a fluorescent substrate (DNP-Pro-Leu-Gly-Leu-Trp-Ala-D-Arg-[…], M1855 Bachem) by means of the catalytic domain of MMP8.
as §1, §2, §3, §4, §5, §6

[3] = test system: human fibrosarcoma HT1080 cells; assay: Test of chemoinvasion through Type IV collagen coated Transwell chambers; assay type: cell-based; details: HT-1080, concentration 10^-7 M
Experimental: The compounds of the present invention have also shown activity in a test of chemoinvasion. In the test of chemoinvasion the Costar Transwell chambers for cell culture (diameter: 6.5 mm: pore size: 8 μm) are coated with 100 μl of Type IV collagen (diluted solution 50 μg/ml, then evaporation overnight). With the same procedure the chambers are coated with a second layer of Type IV collagen (100 μl of solution at concentration 50 μg/ml). Before use, the chambers are rinsed twice with sterile water and incubated for about 1 hour at 37° C. in a serum-free medium (DMEM).
The human fibrosarcoma HT1080 cells are harvested by trypsin-EDTA treatment, washed with DMEM-10% FCS and incubated for at least 30 minutes at 37° C. in the same medium. The cells are then washed with serum-free DMEM and resuspended in serum-free DMEM added with 0.1% BSA (fraction V), counted and diluted to obtain a final density of 3×10^5 cell/ml.
Preincubated inserts are aspirated to remove the serum-free medium. […]
Incubated filters are then washed with PBS, the cells are fixed 15 min. in 4% paraformaldehyde, permeabilized in methanol (10 minutes, −20° C.) and stained with May-Grunwald-Giemsa. Cells which adhere to the top of the filters are removed with a cotton swab, filters are detached from the bottom of the chambers and analyzed with microscope to determine the number of cells on the lower side of the filters. […]

CCCCCCCCC1(CC(=O)OCC)C(=O)NC(=O)NC1=O [Example 1, 5-octyl-5-(ethoxycarbonylmethyl)barbituric acid]
pIC50 [1]: 7.71 | pIC50 [2]: 6.97

CCCCCCCCC1(CC(=O)NCCNC(C)=O)C(=O)NC(=O)NC1=O [Example 5, 5-octyl-5-(carboxymethyl)barbituric acid N′-acetyl N-ethylenediamide]
pIC50 [1]: 7.70 | pIC50 [2]: 7.00

CCCCCCCCC1(CC(=O)N(CCNC(C)=O)Cc2ccccc2)C(=O)NC(=O)NC1=O [Example 6, 5-octyl-5-(carboxymethyl)barbituric acid N′-acetyl-N-benzyl-N-ethylenediamide]
pIC50 [1]: 7.85 | inhibition at 0.1 µM [3]: 73% | pIC50 [2]: 7.17

CNC(=O)[C@H](Cc1ccccc1)NC(=O)[C@H](CC(C)C)[C@H](CSc1ccccc1)C(=O)NO [GI 129471, reference compound]
inhibition at 0.1 µM [3]: 77%

CNC(=O)[C@H](Cc1ccccc1)NC(=O)[C@H](CC(C)C)[C@H](CSc1cccs1)C(=O)NO [batimastat, reference compound]
pIC50 ([1]; catalytic domain, read-out: MMP-9 IC50): 7.60
